For the experiment, the target named is T1, first (BRD4-BD1) or the second (BRD4-BD2) bromodomain of BRD4 (Homo sapiens, UniProt O60885).
T1 construct: fused on or other part: GST tag (N-terminal fusion, used for capture on the glutathione acceptor beads)
The experiment in a line: BRD4-H4 tetraacetylated peptide inhibition AlphaScreen. The format is binding. Conditions: inhibition of interaction of GST-BRD4 bromodomain with biotinylated tetraacetylated histone H4 peptide; table does not say whether BD1 or BD2. As for the experimental part:
BRD4-H4 tetraacetylated peptide inhibition AlphaScreen
Compounds are diluted in serial dilution 1:5 in assay buffer from 10 mM stock in DMSO (100 μM start concentration) in white OptiPlate-384 (PerkinElmer). A mix consisting of 15 nM GST-BRD4-BD1 protein (aa 44-168) or 150 nM GST-BRD4-BD2 (aa 333-460) and 15 nM biotinylated Acetyl-Histone H4 (LysS, 8, 12, 16) peptide is prepared in assay buffer (50 mM HEPES pH=7.4; 25 mM NaCl; 0.05% Tween 20; 0.1% bovine serum albumin (BSA); 10 mM dithiothreitol (DTT)). 6 μl of the mix is added to the compound dilutions. Subsequently, 6 μl of premixed AlphaLISA Glutathione Acceptor Beads and AlphaScreen Streptavidin Donor Beads from PerkinElmer (in assay buffer at a concentration of 10 μg/ml each) are added and the samples are incubated for 30 min at RT in the dark (shaking 300 rpm). Afterwards, the signal is measured in a PerkinElmer Envision HTS Multilabel Reader using the AlphaScreen protocol from PerkinElmer. Each plate contains negative controls where biotinylated Acetyl-Histone H4 peptide and GST-BRD4-BD1 or GST-BRD4-BD2 are left out and replaced by assay buffer. Negative control values are entered as low basis value when using the software GraphPad Prism for calculations. Furthermore, a positive control (probe molecule JQ1+ with protein/peptide mix) is pipetted. Determination of IC50 values are carried out using GraphPad Prism 3.03 software (or updates thereof).
Background: Alpha assays give light when donor and acceptor beads are brought close together.

The IC50 is the concentration at which inhibition is half-maximal. Read a high IC50 as weaker potency.

In turn, `Cc1noc(C)c1-c1ccc2c(c1)C(c1ccccc1)N(C)C(=O)N2` (stereo not shown) [Example 1, 6-(3,5-Dimethyl-isoxazol-4-yl)-3-methyl-4-phenyl-3,4-dihydro-1H-quinazolin-2-one] came in with an IC50 of 44 nM.

The molecule `Cc1noc(C)c1-c1ccc2c(c1)[C@H](c1ccccc1)N(C)C(=O)N2` [Example 2, (S) 6-(3,5-Dimethyl-isoxazol-4-yl)-3-methyl-4-phenyl-3,4-dihydro-1H-quinazolin-2-one] returned an IC50 of 27 nM. This IC50 is about 1.6-fold lower than that of the molecule before.

In the case of `Cc1noc(C)c1-c1ccc2c(c1)C(c1ccccc1)N(C)C(=O)N2C` (stereo not shown) [Example 3, 6-(3,5-Dimethyl-isoxazol-4-yl)-1,3-dimethyl-4-phenyl-3,4-dihydro-1H-quinazolin-2-one], the IC50 is 66 nM.

Molecule `Cc1noc(C)c1-c1ccc2c(c1)C(c1ccccc1)N(CC1CCN(C)CC1)C(=O)N2` (stereo not shown) [Example 4, 6-(3,5-Dimethyl-isoxazol-4-yl)-3-(1-methyl-piperidin-4-ylmethyl)-4-phenyl-3,4-dihydro-1H-quinazolin-2-one] came in with an IC50 of 31 nM.

Take `Cc1noc(C)c1-c1ccc2c(c1)C(c1ccccc1)N(CC1CCOCC1)C(=O)N2` (stereo not shown) [Example 5, 6-(3,5-Dimethylisoxazol-4-yl)-4-phenyl-3-(tetrahydropyran-4-ylmethyl)-1,4-dihydroquinazolin-2-one]: the IC50 stood at 38 nM.

The molecule `Cc1noc(C)c1-c1ccc2c(c1)C(c1ccccc1)N(Cc1ccccc1)C(=O)N2` (stereo not shown) [Example 6, 3-Benzyl-6-(3,5-dimethylisoxazol-4-yl)-4-phenyl-1,4-dihydroquinazolin-2-one] registered an IC50 of 225 nM.

As to `Cc1noc(C)c1-c1ccc2c(c1)C(c1ccc(Cl)cc1)N(C)C(=O)N2` (stereo not shown) [Example 7, 4-(4-Chloro-phenyl)-6-(3,5-dimethyl-isoxazol-4-yl)-3-methyl-3,4-dihydro-1H-quinazolin-2-one], the IC50 is 105 nM.

In turn, `Cc1noc(C)c1-c1ccc2c(c1)C(c1ccccc1)N(C)C(=O)O2` (stereo not shown) [Example 8, 6-(3,5-Dimethyl-isoxazol-4-yl)-3-methyl-4-phenyl-3,4-dihydro-benzo[e][1,3]oxazin-2-one] came in with an IC50 of 75 nM.

`Cc1noc(C)c1-c1ccc2c(c1)[C@H](c1ccccc1)N(C)C(=O)O2` [Example 9, (S) 6-(3,5-Dimethyl-isoxazol-4-yl)-3-methyl-4-phenyl-3,4-dihydro-benzo[e][1,3]oxazin-2-one] gave an IC50 of 68 nM.

`Cc1noc(C)c1-c1ccc2c(c1)C(c1ccccc1)OC(=O)N2` (stereo not shown) [Example 10, 6-(3,5-Dimethyl-isoxazol-4-yl)-4-phenyl-1,4-dihydro-benzo[d][1,3]oxazin-2-one] showed an IC50 of 423 nM.

`COc1ccc(CN2C(=O)Oc3ccc(-c4c(C)noc4C)cc3C2c2ccccc2)cc1` (stereo not shown) [Example 12, 6-(3,5-Dimethyl-isoxazol-4-yl)-3-(4-methoxy-benzyl)-4-phenyl-3,4-dihydro-benzo[e][1,3]oxazin-2-one] displayed an IC50 of 241 nM.

`Cc1noc(C)c1-c1ccc2c(c1)C(c1ccccn1)N(C)C(=O)N2` (stereo not shown) [Example 13, 6-(3,5-Dimethyl-isoxazol-4-yl)-3-methyl-4-pyridin-2-yl-3,4-dihydro-1H-quinazolin-2-one] returned an IC50 of 119 nM.

As for `Cc1noc(C)c1-c1cc2c(cn1)NC(=O)N(C)C2c1ccccc1` (stereo not shown) [Example 15, 6-(3,5-Dimethyl-isoxazol-4-yl)-3-methyl-4-phenyl-3,4-dihydro-1H-pyrido[3,4-d]pyrimidin-2-one], half-maximal inhibition (IC50) required 837 nM.

For `Cc1noc(C)c1-c1cc2c(cn1)NC(=O)N(C)[C@H]2c1ccccc1` [Example 16, (S) 6-(3,5-Dimethyl-isoxazol-4-yl)-3-methyl-4-phenyl-3,4-dihydro-1H-pyrido[3,4-d]pyrimidin-2-one], the IC50 stood at 166 nM.

On to `Cc1noc(C)c1-c1ccc2c(n1)C(c1ccccc1)N(C)C(=O)N2` (stereo not shown) [Example 17, 6-(3,5-Dimethyl-isoxazol-4-yl)-3-methyl-4-phenyl-3,4-dihydro-1H-pyrido[3,2-d]pyrimidin-2-one], for which inhibition was half-maximal at 252 nM (IC50). This IC50 lies about 1.5-fold higher than the previous one.

In the case of `Cc1noc(C)c1-c1cnc2c(c1)C(c1ccccc1)N(C)C(=O)N2` (stereo not shown) [Example 18, 6-(3,5-Dimethyl-isoxazol-4-yl)-3-methyl-4-phenyl-3,4-dihydro-1H-pyrido[2,3-]pyrimidin-2-one], the IC50 was found to be 76 nM.

The molecule `Cc1noc(C)c1-c1ccc2c(c1)C(C)(c1ccccc1)N(C)C(=O)N2` (stereo not shown) [Example 19, 6-(3,5-Dimethyl-isoxazol-4-yl)-3,4-dimethyl-4-phenyl-3,4-dihydro-1H-quinazolin-2-one] gave an IC50 of 31 nM.

Molecule `COc1noc(C)c1-c1ccc2c(c1)C(c1ccccc1)N(C)C(=O)N2` (stereo not shown) [Example 20, 6-(3-Methoxy-5-methyl-isoxazol-4-yl)-3-methyl-4-phenyl-3,4-dihydro-1H-quinazolin-2-one] gave an IC50 of 213 nM.

In turn, `COc1c(-c2c(C)noc2C)ccc2c1C(c1ccccc1)N(C)C(=O)N2` (stereo not shown) [Example 21, 6-(3,5-Dimethyl-isoxazol-4-yl)-5-methoxy-3-methyl-4-phenyl-3,4-dihydro-1H-quinazolin-2-one] showed an IC50 of 825 nM.

The record behind these values is patent publication US9199988B2, “Dihydroquinazolinone analogues” (Boehringer Ingelheim International GmbH, priority 2013, dated 2015).
